Experimental data as given in patent US20140072662A1, “Andrographis Paniculata Compositions and Methods for Treatment of Addictions” (Omeros Corporation, priority 2012, published 2014).

Tests used:
Wistar rats = test: Yohimbine-induced reinstatement of nicotine seeking in Wistar rats; assay type: in vivo, rat; conditions: yohimbine 1.25 mg/kg IP; p<0.001
Protocol: Animals are anesthetized by intramuscular injection of 100-150 μl of a solution containing tiletamine cloridrate (58.17 mg/ml) and zolazepam cloridrate (57.5 mg/ml). For IV surgery, incisions are made to expose the right jugular vein. A catheter made from micro-renathane tubing (I.D.=0.020 inches, O.D.=0.037 inches) is subcutaneously positioned between the vein and the back. After insertion into the vein, the proximal end of the catheter is anchored to the muscles underlying the vein with surgical silk. The distal end of the catheter is attached to a stainless-steel cannula bent at a 90° angle. The cannula is inserted in a support made by dental cement on the back of the animals covered with a plastic cap. […] Body weights are monitored every day and catheter patency is confirmed approximately every 3 days with an injection of 0.2-0.3 ml of thiopental sodium (250 mg/ml) solution. […]
The day after the last extinction session, in a within subject counterbalanced design animals are given Andrographis Paniculata extract OS at the doses of 0, 150; 450 mg/kg, given 1 hour prior to administration of yohimbine (1.25 mg/kg) or its vehicle. 30 minutes following the administration of yohimbine, animals (N=15) are placed in the self-administration apparatus, and lever pressesis recorded for 2 hours. […]

msP rats [1] = test: Yohimbine-induced reinstatement of alcohol seeking in msP rats; assay type: in vivo, rat; conditions: yohimbine 1.25 mg/kg i.p.; p<0.001
Protocol: The study was conducted using standard operant chambers (Med Associate, St Albans, Vt.) located in sound-attenuating, ventilated environmental cubicles. Each chamber was equipped with a drinking reservoir (volume capacity: 0.30 ml) positioned 4 cm above the grid floor in the centre of the front panel of the chamber, and two retractable levers located 3 cm to the right or to the left of the drinking receptacle. Auditory and visual stimuli were presented via a speaker and a light located on the front panel. A microcomputer controlled the delivery of fluids, presentation of auditory and visual stimuli, and recording of the behavioral data.
During the first 6 days of training, rats were allowed to lever-press for a 10% (v/v) alcohol solution containing 0.2% (w/v) saccharin solution, on a FR-1 schedule. In the following days, msP rats were trained to self-administer 10% alcohol solution (v/v) on a FR-1, time out 5 second (TO 5 s.) schedule of reinforcement. The TO period was signalled by illumination of a white house light above the right lever for 5 s. 10% (v/v) alcohol self-administration continued until stable baseline of responding was achieved.
After the last alcohol self-administration session, animals were subjected to 30-min extinction sessions. […]

[2] = cited from earlier work
[3] = system: rat model of cerebral ischemia; conditions: in vivo; cited from earlier work
msP rats [4] = test: Central PPAR antagonist GW9662 on andrographolide-induced reduction of alcohol intake in msP rats; assay type: in vivo, rat; conditions: andrographolide 10 mg/kg, 6 consecutive days; 2, 8 and 24 hours
Protocol: GW9662, purchased from Tocris (Bristol, UK), was dissolved in 10% DMSO and 3% Tween 80 and the final volume (5 μg/μl) was adjusted adding distilled water. GW9662 was injected ICV in a volume of 1 μl per rat by means of a stainless-steel injector 2.5 mm longer than the guide cannula, so that its tip protruded into the ventricle.
A 22-gauge guide cannula for intracerebroventricular (ICV) drug injections was stereotaxically implanted into the lateral cerebroventricle with the following coordinates: anteroposterior (AP)=1.0; lateral (L)=1.8; ventral (V)=2.0 with reference to bregma.
(§1) A widely used method for testing fluid preference is the two-bottle choice paradigm, in which water and 10% (v/v) alcohol solution were offered in graduated drinking tubes equipped with metallic drinking spouts and their consumption was measured by reading the volume consumed from the graduated tubes. Food intake was measured by weighing the food containers and taking into account spillage. Alcohol, water and food intakes are expressed as g/kg to reduce the influence of differences in body weight.
To examine whether the effect of andrographolide on alcohol intake is mediated by brain PPAR receptors, another group of msP rats (N=31) was treated ICV with 5 μg/rat of the PPAR antagonist GW9662 and then injected with andrographolide (10 mg/kg) or its vehicle. In a between-subject design each group of animals (N=7-8/group) received a different drug dose for 6 consecutive days. GW9662 or its vehicle were administered twice daily at 12 hours and 30 minutes before the beginning of the dark period of the light-dark cycle. Andrographolide was given immediately after GW9662 administrations.
Alcohol, water, and food intake was recorded at 0.5, 2, 8 and 24 hours from the moment that alcohol was made available.

[5] = clinical study; cited from earlier work
msP rats [6] = test: Two-bottle choice paradigm, voluntary 10% alcohol intake in msP rats; assay type: in vivo, rat; conditions: 3 days
Excerpt: Male genetically selected alcohol-preferring rats were used. They were bred at the Department of Experimental Medicine and Public Health of the University of Camerino (Marche, Italy) for 64 generations from Sardinian alcohol-preferring (sP) rats of the 13th generation, provided by the Department of Neurosciences of the University of Cagliari (Colombo et al, 2006). They are referred to as Marchigian sP (msP) rats (Ciccocioppo et al, 2006). At the time of the experiments their body weight ranged between 300 and 350 g. They were kept in single cages in a room with a reverse 12:12 h light/dark cycle (lights off at 9:30 a.m.), temperature of 20-22° C. and humidity of 45-55%. […]
as §1, with “weight. […]” for “weight.”
Alcohol, water and food intake were monitored daily at 0.5, 2, 8 and 24 hours. For all the experiments performed, intakes were recorded for several additional days after the end of the drug treatment period. […]

[7] = system: LPS-stimulated macrophages; conditions: cited from earlier work
[8] = in vivo, cited from earlier work

SMILES	reinstatement of responding for nicotine vs extinction (Wistar rats)	reinstatement of operant response for alcohol vs extinction (msP rats [1])	aqueous solubility [2]	neuroprotective effects [3]	alcohol drinking (msP rats [4])	ability to cross the brain-blood barrier [5]	voluntary alcohol intake (msP rats [6]; andrographolide 5 mg/kg i.p. twice daily)	voluntary alcohol intake (msP rats [6]; andrographolide 10 mg/kg i.p. twice daily (12 h and 30 min before dark period))	production of TNF-α, IL-1β and IL-12 [7]	oral bioavailability ([8]; po)	binding to plasma proteins [8]
COC(=O)[C@@H]1[C@H]2C[C@H]3c4[nH]c5ccccc5c4CCN3C[C@@H]2CC[C@@H]1O [yohimbine]	significant reinstatement of responding	significantly reinstated the operant response for alcohol	–	–	–	–	–	–	–	–	–
C=C1CC[C@@H]2[C@](C)(CO)[C@H](O)CC[C@@]2(C)[C@@H]1C/C=C1/C(=O)OC[C@H]1O [andrographolide]	–	–	low	clear neuroprotective effects	reduced alcohol consumption starting from the second day and for the entire duration of treatment	cross the brain-blood barrier	a statistical difference from controls was observed the last day of treatment for all the time points	the effect appeared from the second day of treatment (Day 3) and remained significant throughout the treatment period	inhibits	low	high
